Data as given in patent EP1734031A1, “NOVEL 2-(ALPHA-N-PENTANONYL)BENZOETES, THEIR PREPARATION AND USE” (priority 2004, dated 2005).
Where “and” joins values, the source holds several entries; their conditions need not be identical. Equal values may be shown once.

Legend:
[1] = test system: model rats of middle cerebral artery thrombosis (MCAT); assay: Effects on cerebral infarct area of MCAT rats (TTC staining); format: in vivo, SD rats; conditions: for cerebral infarct compared with the model group (in words): 50 mg/kg, P<0.05
[2] = test system: model rats of middle cerebral artery thrombosis (MCAT); assay: Effects on neural symptoms of MCAT rats (behavioral score); format: in vivo, SD rats; conditions: for Scores 24 hours: 24 hours after operation; for Scores 24 hours / Scores 6 hours: full mark 4; for % inhibition at hour 24 / alleviation on neural symptoms at 24 hours after the operation (in words): vs. model group; for alleviation on neural symptoms at 24 hours after the operation (in words): 50 mg/kg, P<0.01 or P<0.05; for Scores 6 hours: 6 hours after operation
in vivo = conditions: mouse, po; for LD50 at 7 days: both, ICR
[3] = Stability of aqueous solution (decomposed products by HPLC); format: physicochemical; conditions: aqueous solution 0.2 mg/ml, exposed to water for 24 hours
[4] = test system: thrombosis of artery-vein bypass in rats; assay: Effects on thrombosis of artery-vein bypass in rats; format: in vivo, SD rats; conditions: for Dry-weight of thrombus / Wet-weight of thrombus: once per day for 3 days; for Inhibition (dry-weight of thrombus) / Inhibition (wet-weight of thrombus): vs. thrombus model group
[5] = Thermal stability (purity by HPLC); conditions: 10 days at 60°C
Method: Tests were conducted for 10 days at 60°C in accordance with the testing method as described in Pharmacopoeia of P.R. China, 2000 ed., appendix XIX C of part two, "Guideline for testing the stability of medicament: method for testing thermal stability". The purity was determined in accordance with the test described in Pharmacopoeia of P.R. China, 2000 ed., appendix VD of part two, by using HPLC method, C18 column, mobile phase of acetonitrile:0.02M sodium dihydrogen phosphate = 40:60, detecting wavelength of 230 nm, flow rate of 1 ml/min.

[6] = Stability to light (purity by HPLC); conditions: light test, 10 days
Method: Tests were conducted for 10 days in accordance with the testing method as described in Pharmacopoeia of P.R. China, 2000 ed., appendix XIX C of part two, "Guideline for testing the stability of medicament: method for testing stability to light". The purity was determined in accordance with the test described in Pharmacopoeia of P.R. China, 2000 ed., appendix VD of part two, by using HPLC method, C18 column, mobile phase of acetonitrile:0.02M sodium dihydrogen phosphate = 40:60, detecting wavelength of 230 nm, flow rate of 1 ml/min.

[7] = 50 mg/kg by gavage, 24 hours after operation
[8] = 50 mg/kg by gavage, vs. model group
[9] = 100 mg/kg by gavage, 24 hours after operation
[10] = 100 mg/kg by gavage, vs. model group
[11] = 200 mg/kg by gavage, 24 hours after operation
[12] = 200 mg/kg by gavage, vs. model group

Structure (SMILES) | Cerebral infarct tissue weight/total brain weight [1, 7] [%] | Inhibition (cerebral infarct) [1, 8] [%] | Cerebral infarct tissue weight/total brain weight [1, 9] [%] | Inhibition (cerebral infarct) [1, 10] [%] | Cerebral infarct tissue weight/total brain weight [1, 11] [%] | Inhibition (cerebral infarct) [1, 12] [%] | Scores 24 hours ([2]; 50 mg/kg by gavage) | % inhibition at hour 24 ([2]; 50 mg/kg by gavage) [%] | alleviation on neural symptoms at 24 hours after the operation (in words) [2] | Scores 24 hours ([2]; 100 mg/kg by gavage) | Scores 6 hours ([2]; 200 mg/kg by gavage) | Scores 24 hours ([2]; 200 mg/kg by gavage) | % inhibition at hour 24 ([2]; 200 mg/kg by gavage) [%] | Scores 6 hours ([2]; 50 mg/kg by gavage) | Scores 6 hours ([2]; 100 mg/kg by gavage) | % inhibition at hour 24 ([2]; 100 mg/kg by gavage) [%] | Dry-weight of thrombus ([4]; 50 mg/kg by gavage) [mg] | Wet-weight of thrombus ([4]; 50 mg/kg by gavage) [mg] | Inhibition (dry-weight of thrombus) ([4]; 50 mg/kg) [%] | Inhibition (wet-weight of thrombus) ([4]; 50 mg/kg) [%] | also measured
CCCCC(O)c1ccccc1C(=O)O (stereo not drawn) [N,N'-dibenzylethylenediamine 2-(α-hydroxypentyl)benzoate] [listing 1 of 2 here] | 5.85±2.32 | 21.05 | 5.50±1.82 | 30.73 | 5.09±2.14 | 33.11 | 3.09±0.54 | 15.11 | significantly alleviation | 2.91±0.70 | 3.36±0.67 | 2.82±0.87 | 24.40 | – | – | – | – | – | – | – | –
CCCCC(O)c1ccccc1C(=O)O (stereo not drawn) [Calcium 2-(α-hydroxypentyl)benzoate] | 6.39±2.33 | 13.77 | 5.82±1.90 | 26.70 | 5.41±1.77 | 28.91 | 3.36±0.50 | 7.69 | – | 3.09±0.70 | 3.45±0.52 | 2.91±0.54 | 21.98 | 3.45±0.52 | 3.55±0.52 | 17.16 | – | – | – | – | –
CCCCC(=O)c1ccccc1C(=O)[O-].[K+] [Potassium 2-(α-n-pentanonyl)benzoate, potassium 2-(α-n-pentanonyl)benzoate] | 5.63±1.52 | 24.02 | 5.09±2.04 | 35.89 | 4.38±1.54 | 42.44 | 2.91±0.70 | 20.05 | significantly alleviation | 2.82±0.75 | 3.20±0.63 | 2.10 ± 0.32 s | 43.70 | 3.27±0.79 | 3.36±0.67 | 24.40 | 38.3 ± 15.4 | 208.8 ± 45.3 | 25.34 | 19.44 | LD50 at 7 days (in vivo): 2720 mg/kg; decomposed product [3]: no decomposed product; Dry-weight of thrombus ([4]; 100 mg/kg by gavage): 35.6 ± 14.0 mg; Wet-weight of thrombus ([4]; 100 mg/kg by gavage): 192.6 ± 41.2 mg; Inhibition (dry-weight of thrombus) ([4]; 100 mg/kg): 30.60%; Inhibition (wet-weight of thrombus) ([4]; 100 mg/kg): 25.69%; Dry-weight of thrombus ([4]; 200 mg/kg by gavage): 28.3 ± 16.3 mg; Wet-weight of thrombus ([4]; 200 mg/kg by gavage): 157.0 ± 51.4 mg; Inhibition (dry-weight of thrombus) ([4]; 200 mg/kg): 44.8%; Inhibition (wet-weight of thrombus) ([4]; 200 mg/kg): 39.43%; Inhibition (dry-weight of thrombus) ([4]; 200 mg/kg, listed as potassium 2-(α-n-pentanonyl)benzoate): 44.83%; decomposed product (thermal stability) [5]: no decomposed product; decomposed product (stability to light) [6]: no decomposed product; cerebral infarct compared with the model group (in words) [1]: significantly reduced
CCCCC(=O)c1ccccc1C(=O)[O-].[Na+] [Sodium 2-(α-n-pentanonyl)benzoate, sodium 2-(α-n-pentanonyl)benzoate] | 5.26±2.26 | 29.01 | 4.99±1.83 | 37.16 | 5.19±2.40 | 31.80 | 3.00±0.67 | 17.58 | significantly alleviation | 2.80±0.79 | 3.27±0.65 | 2.82±0.40 | 24.40 | 3.40±0.70 | 3.10±0.74 | 24.93 | 26.2 ± 9.7 | 138.8 ± 41.1 | 31.05 | 34.31 | LD50 at 7 days (in vivo): 2650 mg/kg; decomposed product [3]: no decomposed product; Dry-weight of thrombus ([4]; 100 mg/kg by gavage): 19.7 ± 7.8 mg; Wet-weight of thrombus ([4]; 100 mg/kg by gavage): 115.4 ± 42.3 mg; Inhibition (dry-weight of thrombus) ([4]; 100 mg/kg): 48.16%; Inhibition (wet-weight of thrombus) ([4]; 100 mg/kg): 45.39%; Dry-weight of thrombus ([4]; 200 mg/kg by gavage): 22.4 ± 10.1 mg; Wet-weight of thrombus ([4]; 200 mg/kg by gavage): 131.1 ± 48.0 mg; Inhibition (dry-weight of thrombus) ([4]; 200 mg/kg): 41.05%; Inhibition (wet-weight of thrombus) ([4]; 200 mg/kg): 37.96%; decomposed product (thermal stability) [5]: no decomposed product; decomposed product (stability to light) [6]: no decomposed product; cerebral infarct compared with the model group (in words) [1]: significantly reduced
CCCCC(O)c1ccccc1C(=O)O (stereo not drawn) [N,N'-dibenzylethylenediamine 2-(α-hydroxypentyl)benzoate] [listing 2 of 2 here] | – | – | – | – | – | – | – | – | – | – | – | – | – | – | – | – | – | – | – | – | LD50 at 168 h (in vivo): 2810 mg/kg
CCC/C=C1/OC(=O)c2ccccc21 [3-n-butenylphthalide] | – | – | – | – | – | – | 3.40±0.52 | 6.59 | – | 2.91±0.70 | 3.36±0.67 | 3.00±0.63 | 19.57 | 3.50±0.53 | 3.36±0.81 | 21.98 | 28.6 ± 9.6 | 169.9 ± 28.8 | 24.74 | 19.59 | LD50 at 168 h (in vivo): 2570 mg/kg; Dry-weight of thrombus ([4]; 100 mg/kg by gavage): 22.9 ± 11.9 mg; Wet-weight of thrombus ([4]; 100 mg/kg by gavage): 137.5 ± 47.4 mg; Inhibition (dry-weight of thrombus) ([4]; 100 mg/kg): 39.74%; Inhibition (wet-weight of thrombus) ([4]; 100 mg/kg): 34.93%; Dry-weight of thrombus ([4]; 200 mg/kg by gavage): 24.9 ± 12.3 mg; Wet-weight of thrombus ([4]; 200 mg/kg by gavage): 141.6 ± 41.2 mg; Inhibition (dry-weight of thrombus) ([4]; 200 mg/kg): 34.47%; Inhibition (wet-weight of thrombus) ([4]; 200 mg/kg): 32.99%; Cerebral infarct tissue weight/total brain weight ([1]; rat, in vivo): 5.90±1.50% and 5.49±2.14 %; Inhibition (cerebral infarct) ([1]; rat, in vivo): 20.38% and 28.84% and 27.86%
CCCCC1OC(=O)c2ccccc21 (racemic) [DL-3-n-butylphthalide] | 5.66±2.81 | 23.62 | 5.81±1.49 | 26.83 | 5.52±1.78 | 27.46 | 3.09±0.54 | 15.11 | significantly alleviation | 3.09±0.70 | 3.36±0.67 | 3.00±0.89 | 19.57 | 3.36±0.81 | 3.36±0.50 | 17.16 | – | – | – | – | LD50 at 168 h (in vivo): 2190 mg/kg
